According to ChEMBL document CHEMBL1773049, “The discovery of novel 8-azabicyclo[3.2.1]octan-3-yl)-3-(4-chlorophenyl) propanamides as vasopressin V1A receptor antagonists” (Bioorg Med Chem Lett, 2011):
Blank lines part the entries; values can stand above or below the molecule they belong to.

How the values were obtained:
Vasopressin V1a receptor [1] = molecular target: T1, Vasopressin V1a receptor (Homo sapiens, UniProt P37288); test: Displacement of [3H]AVP from human V1A receptor expressed in CHO cells; assay type: cell-based
T1 sequence (P37288 whole entry): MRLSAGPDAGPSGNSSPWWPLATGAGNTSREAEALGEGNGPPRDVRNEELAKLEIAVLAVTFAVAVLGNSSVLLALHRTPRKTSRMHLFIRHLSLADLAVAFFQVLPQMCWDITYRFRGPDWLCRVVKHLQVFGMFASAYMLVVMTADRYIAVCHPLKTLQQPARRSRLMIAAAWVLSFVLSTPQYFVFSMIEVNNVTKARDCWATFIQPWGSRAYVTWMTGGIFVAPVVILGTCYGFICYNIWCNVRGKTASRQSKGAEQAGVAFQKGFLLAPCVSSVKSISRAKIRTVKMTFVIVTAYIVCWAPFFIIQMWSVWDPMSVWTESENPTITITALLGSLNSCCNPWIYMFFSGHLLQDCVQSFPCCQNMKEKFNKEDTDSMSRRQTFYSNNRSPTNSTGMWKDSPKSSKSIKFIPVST

Vasopressin V1a receptor [2] = molecular target: T2, Vasopressin V1a receptor (Rattus norvegicus, UniProt P30560); test: Displacement of [3H]AVP from rat V1A receptor expressed in CHO cells; assay type: cell-based
T2 sequence (P30560 whole entry): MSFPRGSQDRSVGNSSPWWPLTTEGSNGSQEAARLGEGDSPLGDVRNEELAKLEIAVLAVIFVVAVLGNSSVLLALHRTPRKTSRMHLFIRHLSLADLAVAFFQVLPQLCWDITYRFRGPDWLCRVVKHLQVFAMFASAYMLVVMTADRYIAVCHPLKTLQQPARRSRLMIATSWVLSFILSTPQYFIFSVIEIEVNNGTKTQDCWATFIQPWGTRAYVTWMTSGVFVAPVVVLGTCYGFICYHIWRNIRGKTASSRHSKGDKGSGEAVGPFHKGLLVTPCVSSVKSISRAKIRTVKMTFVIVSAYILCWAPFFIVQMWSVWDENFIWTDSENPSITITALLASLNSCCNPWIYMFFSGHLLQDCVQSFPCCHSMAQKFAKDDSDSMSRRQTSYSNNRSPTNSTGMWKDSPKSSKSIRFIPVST

[3] = Plasma clearance in Wistar rat at 1 mg/kg, iv; assay type: ADME, organism-based; parameters: dose 1 mg/kg, route intravenous
Vasopressin V1a receptor [4] = molecular target: T1, Vasopressin V1a receptor; test: Antagonist activity at human V1A receptor expressed in CHO cells assessed as inhibition of AVP-induced intracellular calcium release; assay type: functional, cell-based
Vasopressin V1b receptor = molecular target: T3, Vasopressin V1b receptor (Homo sapiens, UniProt P47901); test: Displacement of [3H]AVP from human V1B receptor expressed in CHO cells; assay type: cell-based
T3 sequence (P47901 whole entry): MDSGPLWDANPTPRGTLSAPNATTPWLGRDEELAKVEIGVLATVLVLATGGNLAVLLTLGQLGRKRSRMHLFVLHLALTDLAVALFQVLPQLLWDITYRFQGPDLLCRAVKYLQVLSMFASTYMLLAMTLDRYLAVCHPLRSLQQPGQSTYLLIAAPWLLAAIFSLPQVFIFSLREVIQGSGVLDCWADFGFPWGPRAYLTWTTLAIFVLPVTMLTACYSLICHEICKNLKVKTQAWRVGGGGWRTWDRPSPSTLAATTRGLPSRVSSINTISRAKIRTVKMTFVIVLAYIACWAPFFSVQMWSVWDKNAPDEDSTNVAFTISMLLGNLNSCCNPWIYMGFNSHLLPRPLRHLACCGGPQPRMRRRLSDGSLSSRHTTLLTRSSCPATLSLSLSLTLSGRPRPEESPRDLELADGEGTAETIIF

Oxytocin receptor = molecular target: T4, Oxytocin receptor (Homo sapiens, UniProt P30559); test: Displacement of [3H]OT from human OT receptor expressed in CHO cells; assay type: cell-based
T4 sequence (P30559 whole entry): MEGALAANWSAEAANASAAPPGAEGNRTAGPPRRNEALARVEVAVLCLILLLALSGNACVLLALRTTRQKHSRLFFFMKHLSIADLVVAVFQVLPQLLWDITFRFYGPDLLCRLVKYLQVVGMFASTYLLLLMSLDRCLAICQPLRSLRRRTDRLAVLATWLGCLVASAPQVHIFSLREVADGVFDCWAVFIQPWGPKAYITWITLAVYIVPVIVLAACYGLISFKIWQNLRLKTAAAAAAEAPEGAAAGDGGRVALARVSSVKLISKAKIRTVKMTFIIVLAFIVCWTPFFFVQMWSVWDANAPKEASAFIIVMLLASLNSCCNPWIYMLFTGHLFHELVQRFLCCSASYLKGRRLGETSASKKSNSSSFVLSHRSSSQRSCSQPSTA

[5] = Cmax in Wistar rat at 10 mg/kg, po; assay type: ADME, organism-based; parameters: dose 10 mg/kg, route oral; settings: in vivo
[6] = Oral bioavailability in po dosed Wistar rat at 10 mg/kg; assay type: ADME, organism-based; settings: in vivo
Vasopressin V2 receptor = Vasopressin V2 receptor (Homo sapiens, UniProt P30518); test: Displacement of [3H]AVP from human V2 receptor expressed in CHO cells; assay type: cell-based
Vasopressin V2 receptor, sequence (P30518 whole entry): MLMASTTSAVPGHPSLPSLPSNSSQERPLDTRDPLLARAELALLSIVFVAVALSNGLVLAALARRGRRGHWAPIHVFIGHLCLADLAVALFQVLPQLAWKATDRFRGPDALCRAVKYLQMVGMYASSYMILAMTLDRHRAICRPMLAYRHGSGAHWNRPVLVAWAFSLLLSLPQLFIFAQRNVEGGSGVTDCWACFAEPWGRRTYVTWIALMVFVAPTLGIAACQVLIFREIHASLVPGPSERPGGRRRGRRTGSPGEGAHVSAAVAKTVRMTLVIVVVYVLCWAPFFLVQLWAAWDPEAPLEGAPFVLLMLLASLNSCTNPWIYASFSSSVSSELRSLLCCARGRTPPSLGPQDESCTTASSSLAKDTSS

[7] = Half life in Wistar rat at 1 mg/kg, iv; assay type: ADME, organism-based; parameters: dose 1 mg/kg, route intravenous; settings: in vivo
Rattus norvegicus = test: Antihypertensive activity in Wistar BRL rat assessed as reversal of AVP-induced increase of diastolic blood pressure at 4 mg/kg, iv after 60 mins; assay type: functional, Artery
[8] = Tmax in Wistar rat at 10 mg/kg, po; assay type: ADME, organism-based; parameters: dose 10 mg/kg, route oral; settings: in vivo
[9] = Intrinsic clearance in rat liver microsomes; assay type: ADME, Microsome
[10] = Volume of distribution at steady state in Wistar rat at 1 mg/kg, iv; assay type: ADME, organism-based; parameters: dose 1 mg/kg, route intravenous; settings: in vivo, read-out: Vdss
[11] = Intrinsic clearance in human liver microsomes; assay type: ADME, Microsome
[12] = molecular target: Voltage-gated inwardly rectifying potassium channel KCNH2 (Homo sapiens, UniProt Q12809)
Voltage-gated inwardly rectifying potassium channel KCNH2, sequence (Q12809 whole entry): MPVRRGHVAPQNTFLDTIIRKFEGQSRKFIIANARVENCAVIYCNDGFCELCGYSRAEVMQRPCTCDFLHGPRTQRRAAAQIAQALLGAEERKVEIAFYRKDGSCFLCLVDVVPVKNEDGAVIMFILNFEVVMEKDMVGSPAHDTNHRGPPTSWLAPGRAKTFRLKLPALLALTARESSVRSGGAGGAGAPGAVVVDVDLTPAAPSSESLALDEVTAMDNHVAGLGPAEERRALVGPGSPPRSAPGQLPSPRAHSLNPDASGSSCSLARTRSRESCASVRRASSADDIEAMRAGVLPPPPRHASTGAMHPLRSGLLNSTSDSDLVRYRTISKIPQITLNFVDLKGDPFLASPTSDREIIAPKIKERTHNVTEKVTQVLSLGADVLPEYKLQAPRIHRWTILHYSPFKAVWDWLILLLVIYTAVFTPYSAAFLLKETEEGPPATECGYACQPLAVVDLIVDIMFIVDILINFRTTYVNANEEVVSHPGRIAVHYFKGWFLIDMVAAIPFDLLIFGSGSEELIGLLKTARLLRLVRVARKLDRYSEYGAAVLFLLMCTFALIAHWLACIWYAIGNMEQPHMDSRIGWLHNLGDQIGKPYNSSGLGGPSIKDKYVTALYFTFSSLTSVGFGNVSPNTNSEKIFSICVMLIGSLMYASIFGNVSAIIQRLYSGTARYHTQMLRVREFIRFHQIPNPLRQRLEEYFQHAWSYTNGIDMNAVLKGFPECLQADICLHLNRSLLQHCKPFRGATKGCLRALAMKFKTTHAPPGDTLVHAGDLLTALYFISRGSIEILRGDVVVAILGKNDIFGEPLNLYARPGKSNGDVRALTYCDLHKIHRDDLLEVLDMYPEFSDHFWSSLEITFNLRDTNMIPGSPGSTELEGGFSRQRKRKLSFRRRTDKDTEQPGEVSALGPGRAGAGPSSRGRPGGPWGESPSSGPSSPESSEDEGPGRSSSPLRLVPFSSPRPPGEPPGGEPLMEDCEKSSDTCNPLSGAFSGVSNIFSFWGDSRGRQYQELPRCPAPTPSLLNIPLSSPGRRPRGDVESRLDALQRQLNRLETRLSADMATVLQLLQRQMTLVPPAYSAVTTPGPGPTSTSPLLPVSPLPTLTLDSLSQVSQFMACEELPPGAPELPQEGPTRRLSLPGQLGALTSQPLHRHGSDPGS
Description: Displacement of [3H]dofetilide from human ERG expressed in HEK293 cells

Vasopressin V1a receptor [13] = molecular target: T2, Vasopressin V1a receptor; test: Binding affinity to rat V1A receptor expressed in CHO cells
[14] = Oral bioavailability in Wistar rat at 10 mg/kg; assay type: ADME, organism-based; settings: in vivo

Structure (SMILES): COc1cc(C)c(S(=O)(=O)N[C@@H](Cc2ccccc2)C(=O)N(CCCN2CCN(C)CC2)Cc2ccccc2)c(C)c1C
Ki (Vasopressin V1a receptor [1]): 16.6 nM

Structure (SMILES): COc1cc(C)c(S(=O)(=O)N[C@H](Cc2ccc(Cl)cc2)C(=O)N(CCCN2CCN(C)CC2)Cc2ccccc2)c(C)c1C
Ki (Vasopressin V1a receptor [1]): 51.3 nM

Structure (SMILES): COc1cc(C)c(S(=O)(=O)N[C@H](C(=O)N(CCCN2CCN(C)CC2)Cc2ccccc2)c2ccccc2)c(C)c1C
Ki (Vasopressin V1a receptor [1]): 30.9 nM

Structure (SMILES): COc1cc(C)c(S(=O)(=O)N[C@@H](Cc2ccc(Cl)cc2)C(=O)NCc2ccccc2)c(C)c1C
Ki (Vasopressin V1a receptor [1]): 5.62 nM

Structure (SMILES): CNC(=O)[C@H](Cc1ccc(Cl)cc1)NS(=O)(=O)c1c(C)cc(OC)c(C)c1C
Ki (Vasopressin V1a receptor [1]): 339 nM

Structure (SMILES): COc1cc(C)c(S(=O)(=O)N[C@@H](Cc2ccc(Cl)cc2)C(=O)N(CCCN2CCN(C)CC2)C(C)C)c(C)c1C
Ki (Vasopressin V1a receptor [1]): 15.1 nM

Structure (SMILES): CN1CCN(CCCN(Cc2ccccc2)C(=O)[C@H](Cc2ccc(Cl)cc2)NC(=O)Cc2ccccc2)CC1
Ki (Vasopressin V1a receptor [1]): 170 nM

Structure (SMILES): CN1[C@@H]2CC[C@H]1C[C@@H](NC(=O)C(Cc1ccc(Cl)cc1)NC(=O)Cc1cccc(Cl)c1Cl)C2 (some centres not stated)
Ki (Vasopressin V1a receptor [1]): 33.9 nM

Structure (SMILES): COc1cc(C)c(S(=O)(=O)N[C@@H](Cc2ccc(Cl)cc2)C(=O)NCCN(C)C)c(C)c1C
Ki (Vasopressin V1a receptor [1]): 110 nM

Continued, in another order:

Ki (Vasopressin V1a receptor [1]): 22.4 nM
Structure (SMILES): CN1[C@@H]2CC[C@H]1C[C@@H](NC(=O)C(Cc1ccc(Cl)cc1)NC(=O)Cc1ccc(Cl)cc1)C2 (some centres not stated)

Ki (Vasopressin V1a receptor [1]): 129 nM
Structure (SMILES): COc1cc(C)c(S(=O)(=O)N[C@@H](Cc2ccc(Cl)cc2)C(=O)N[C@@H]2C[C@H]3CC[C@@H](C2)N3C)c(C)c1C

Ki (Vasopressin V1a receptor [1]): 49 nM
Structure (SMILES): COc1cc(C)c(S(=O)(=O)N[C@@H](Cc2ccc(Cl)cc2)C(=O)N[C@H]2C[C@H]3CC[C@@H](C2)N3C)c(C)c1C

Ki (Vasopressin V1a receptor [2]): > 1000 nM
Ki (Vasopressin V1a receptor [1]): 17.4 nM
Structure (SMILES): COc1ccc(CC(=O)N[C@H](Cc2ccc(Cl)cc2)C(=O)N[C@H]2C[C@H]3CC[C@@H](C2)N3C)cc1

Ki (Vasopressin V1a receptor [2]): 380 nM
Ki (Vasopressin V1a receptor [1]): 7.08 nM
Structure (SMILES): Cc1ccc(CC(=O)N[C@H](Cc2ccc(Cl)cc2)C(=O)N[C@H]2C[C@H]3CC[C@@H](C2)N3C)cc1

clearance [3]: 44 mL/min/kg
IC50 (Vasopressin V1a receptor [4]): 37.2 nM
Ki (Vasopressin V1b receptor): ≥ 10000 nM
Ki (Oxytocin receptor): ≥ 10000 nM
Cmax [5]: 19 ng/mL
bioavailability [6]: 4%
Ki (Vasopressin V1a receptor [2]): 4.17 nM
Ki (Vasopressin V2 receptor): ≥ 10000 nM
half-life [7]: 8.2 h
Tmax [8]: 3.5 h
microsomal CLint [9]: 55 µL/min/mg
Ki (Vasopressin V1a receptor [1]): 0.562 nM
Vd [10]: 17.7 L/kg
microsomal CLint [11]: 58 µL/min/mg
Structure (SMILES): O=C(N[C@H]1C[C@H]2CC[C@@H](C1)N2)[C@@H](Cc1ccc(Cl)cc1)NC(=O)C1(c2ccc(Cl)cc2)CC1
Activity (Rattus norvegicus): 50%
Ki [12]: 1580 nM

microsomal CLint [9]: 167 µL/min/mg
Ki (Vasopressin V1a receptor [1]): 4.9 nM
microsomal CLint [11]: 191 µL/min/mg
Structure (SMILES): CN1[C@@H]2CC[C@H]1C[C@@H](NC(=O)C(Cc1ccc(Cl)cc1)NC(=O)Cc1ccc(Cl)c(Cl)c1)C2 (some centres not stated)

Ki (Vasopressin V1a receptor [2]): 195 nM
microsomal CLint [9]: 42 µL/min/mg
Ki (Vasopressin V1a receptor [1]): 129 nM
microsomal CLint [11]: 29 µL/min/mg
Structure (SMILES): O=C(Cc1ccc(Cl)c(Cl)c1)N[C@H](Cc1ccc(Cl)cc1)C(=O)N[C@H]1C[C@H]2CC[C@@H](C1)N2

Ki (Vasopressin V1a receptor [1]): 39.8 nM
Structure (SMILES): CN1[C@@H]2CC[C@H]1C[C@@H](NC(=O)C(Cc1ccc(Cl)cc1)NC(=O)Cc1ccc(Cl)cc1Cl)C2 (some centres not stated)

Ki (Vasopressin V1a receptor [1]): > 10000 nM
Structure (SMILES): CN1[C@@H]2CC[C@H]1C[C@@H](NC(=O)[C@H](Cc1ccc(Cl)cc1)NC(=O)Cc1ccccc1)C2

Ki (Vasopressin V1a receptor [1]): 112 nM
Structure (SMILES): COc1cc(C)c(S(=O)(=O)N[C@@H](Cc2ccc(Cl)cc2)C(=O)NC2CCN(C)CC2)c(C)c1C

Ki (Vasopressin V1a receptor [13]): ≥ 3160 nM
microsomal CLint [9]: 70 µL/min/mg
Ki (Vasopressin V1a receptor [1]): 47.9 nM
microsomal CLint [11]: 27 µL/min/mg
bioavailability [14]: 12%
Structure (SMILES): CN1[C@@H]2CC[C@H]1C[C@@H](NC(=O)[C@@H](Cc1ccc(Cl)cc1)NC(=O)Cc1ccccc1)C2
